Experimental findings from PMC4826872, “Underlying Resistance Mechanisms in the Cynosurus echinatus Biotype to Acetyl CoA Carboxylase-Inhibiting Herbicides” (Frontiers in Plant Science, 2016) are described below.

Structures are written as SMILES. Read-outs that look alike come from different tables or passages of the source.

The target in the experiment is T1, ACCase (chloroplastic acetyl coenzyme A carboxylase).
T1 construct: plastid and cytosolic forms not separated; S biotype has Arg1789, Met2065, Gly2067, Val2077
Description: NaH14CO3 incorporation into acid-stable product (malonyl-CoA). The experiment is classed as biochemical, Cynosurus echinatus. Conditions: 5 mM acetyl-CoA, 1.5 mM ATP, 5 mM MgCl2, 15 mM bicarbonate, pH 8.3, 34°C, read-out: I50. From the text:
NaH14CO3 incorporation into acid-stable product (malonyl-CoA) on ACCase (chloroplastic acetyl coenzyme A carboxylase)

As for `CC(Oc1ccc(Oc2nc3ccc(Cl)cc3o2)cc1)C(=O)O` (racemic) [Fenoxaprop], the IC50 reads like this: (R biotype, stated gain) 24.2 µM; (S biotype) 1.58 µM.
In the case of `C[C@@H](Oc1ccc(Oc2ccc(C#N)cc2F)cc1)C(=O)O` [Cihalofop], the IC50 turned out to be 70.8 µM (R biotype, stated gain) and 10.2 µM (S biotype).
Take `CCCC(=NOCC)C1=C(O)CC(C2CCCSC2)CC1=O` (stereo not drawn) [Cycloxidim]: the IC50 (R biotype, stated gain) was determined as 7.89 µM and the IC50 (S biotype) is 2.5 µM.
For `CC(Oc1ccc(Oc2ccc(Cl)cc2Cl)cc1)C(=O)O` (stereo not drawn) [Diclofop], in that order: 63.5 µM and 4.53 µM.
For `CCc1cc(C)cc(CC)c1-c1c(OC(=O)C(C)(C)C)n2n(c1=O)CCOCC2` [Pinoxaden], the IC50 was found to be 9.1 µM (R biotype, stated gain) and 0.39 µM (S biotype).
On to `CCCC(=NOCC)C1=C(O)CC(CC(C)SCC)CC1=O` (stereo not drawn) [Setoxidim], for which the IC50 reads like this: (R biotype, stated gain) 3500 µM; (S biotype) 800 µM.
